What was measured:
[1] = tested on: human aortic vascular smooth muscle cells (HAoSMC); test: HAoSMC proliferation (BrdU uptake); format: cell-based; details: serum-supplemented media (5%), 24 hours
[2] = cited from earlier work

For GLSKGCFGLKLDRIGSMSGLGC [CNP], the reduced proliferation ([1]; 10^−5 M NP) was “about 30%”, the reduced proliferation ([1]; 10^−6 M NP) was “about 20%” and the reduced proliferation ([1]; 10^−7 M NP) was “about 20%”. For the same sequence, the “half-life after administration to a mammal” value [2] was “about a minute and a half”.

— patent US9079973B2, “Natriuretic polypeptides for reducing restenosis” (Mayo Foundation for Medical Education and Research, priority 2008, dated 2015)
